Data reported in ChEMBL document CHEMBL1201862, “PubChem BioAssay data set” (2004).
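Interpolation was linear, between the two tested concentrations surrounding the appropriate level; five concentrations were tested over 48 hours in 96-well plates. The concentration for 50% growth inhibition is given as GI50.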 Calls of active or inactive are those of the source. Cut-off read from the data, not from the text of the source: active = GI50 up to about 1.1 µM and inactive = higher.

What was measured:
Assay in all cases: inhibition of tumour cell growth, NCI panel, 48 h
[1] = test system: Malme-3M
[2] = test system: NCI-H522
[3] = test system: DU-145
[4] = test system: SK-MEL-2
[5] = test system: OVCAR-8
[6] = test system: SNB-75
[7] = test system: IGROV-1
[8] = test system: KM12
[9] = test system: COLO 205
[10] = test system: HCC 2998
[11] = test system: BT-549
[12] = test system: HL-60
[13] = test system: CAKI-1
[14] = test system: T47D
[15] = test system: NCI/ADR-RES
[16] = test system: MCF7
[17] = test system: SNB-19
[18] = test system: SF-268
[19] = test system: MDA-N
[20] = test system: HCT-15

| SMILES | GI50 [1] | GI50 [2] | GI50 [3] | GI50 [4] | GI50 [5] | GI50 [6] | GI50 [7] | GI50 [8] | GI50 [9] | GI50 [10] | GI50 [11] | GI50 [12] | GI50 [13] | GI50 [14] | GI50 [15] | GI50 [16] | GI50 [17] | GI50 [18] | GI50 [19] | GI50 [20] |
| --- | --- | --- | --- | --- | --- | --- | --- | --- | --- | --- | --- | --- | --- | --- | --- | --- | --- | --- | --- | --- |
| C/C=C(\C)c1cc(=O)c2c(C)cc3c(c2o1)C(=O)c1c(O)c(C2CC(C)(N(C)C)C(OC(C)=O)C(C)O2)cc(C2CC(N(C)C)C(O)C(C)O2)c1C3=O (stereo not given) | 0.352 µM (active) | 0.172 µM (active) | 0.258 µM (active) | 1.22 µM (inactive) | 0.542 µM (active) | 1.64 µM (inactive) | 0.8 µM (active) | 1.12 µM (active) | 0.621 µM (active) | 0.0589 µM (active) | 1.07 µM (active) | 0.438 µM (active) | 0.265 µM (active) | 1.53 µM (inactive) | 1.41 µM (inactive) | 0.157 µM (active) | 1.52 µM (inactive) | 0.655 µM (active) | 1.18 µM (inactive) | 1.27 µM |
| CC(Oc1ccc(Cl)cc1Cl)C(=O)NN1C(=O)CSC1c1ccccc1 (stereo not given) | 40.9 µM (inactive) | 56.2 µM (inactive) | 91 µM (inactive) | 45.4 µM (inactive) | 51.1 µM (inactive) | 34.7 µM (inactive) | 54 µM (inactive) | 64 µM (inactive) | > 100 µM (inactive) | > 100 µM (inactive) | 24 µM (inactive) | 27.3 µM (inactive) | 20.4 µM (inactive) | 56.8 µM (inactive) | 86.3 µM (inactive) | 55.3 µM (inactive) | 47.6 µM (inactive) | 60.5 µM (inactive) | > 100 µM (inactive) | > 100 µM |
| CCC(C#N)(c1ccccc1)N(CCc1ccccc1)C(=O)c1ccccc1 (stereo not given) | > 100 µM (inactive) | > 100 µM (inactive) | > 100 µM (inactive) | 67 µM (inactive) | 20 µM (inactive) | 29.5 µM (inactive) | 46.9 µM (inactive) | > 100 µM (inactive) | > 100 µM (inactive) | 54.7 µM (inactive) | 70.8 µM (inactive) | > 100 µM (inactive) | > 100 µM (inactive) | > 100 µM (inactive) | 54.3 µM (inactive) | > 100 µM (inactive) | 28 µM (inactive) | 88.5 µM (inactive) | > 100 µM (inactive) | > 100 µM |
| Cc1cn([C@H]2C=C[C@@H](CO)O2)c(=O)[nH]c1=O [STAVUDINE] | 361 µM (inactive) | 350 µM (inactive) | > 1000 µM (inactive) | > 1000 µM (inactive) | > 1000 µM (inactive) | 796 µM (inactive) | > 1000 µM (inactive) | > 1000 µM (inactive) | 410 µM (inactive) | > 1000 µM (inactive) | 327 µM (inactive) | 348 µM (inactive) | 307 µM (inactive) | 473 µM (inactive) | 678 µM (inactive) | 617 µM (inactive) | > 1000 µM (inactive) | > 1000 µM (inactive) | > 1000 µM (inactive) | > 1000 µM |
| O=C1NC(=S)N/C1=C\c1cc2c(=O)c3ccccc3sc2s1 | > 100 µM (inactive) | 71 µM (inactive) | > 100 µM (inactive) | > 100 µM (inactive) | 57.5 µM (inactive) | 26.4 µM (inactive) | 40.7 µM (inactive) | > 100 µM (inactive) | 47.4 µM (inactive) | 71.1 µM (inactive) | 35 µM (inactive) | 36.5 µM (inactive) | > 100 µM (inactive) | > 100 µM (inactive) | > 100 µM (inactive) | 35.8 µM (inactive) | 33.4 µM (inactive) | > 100 µM (inactive) | 87.7 µM (inactive) | > 100 µM |
